Experimental data from ChEMBL document CHEMBL1131487, “Acetamidine lysine derivative, N-(5(S)-amino-6,7-dihydroxyheptyl)ethanimidamide dihydrochloride: a highly selective inhibitor of human inducible nitric oxide synthase” (J Med Chem, 1998).

Key:
[1] = target: T1, Nitric oxide synthase, inducible (Homo sapiens, UniProt P35228); experiment: Compound was evaluated for the Inhibition of induced isoform of Inducible nitric oxide synthase at 100 uM concentration
[2] = target: T2, Nitric oxide synthase 1 (Homo sapiens, UniProt P29475); experiment: Compound was evaluated for the Inhibition of Neuronal nitric oxide synthase at 100 uM concentration
T2 sequence (P29475 whole entry, canonical isoform): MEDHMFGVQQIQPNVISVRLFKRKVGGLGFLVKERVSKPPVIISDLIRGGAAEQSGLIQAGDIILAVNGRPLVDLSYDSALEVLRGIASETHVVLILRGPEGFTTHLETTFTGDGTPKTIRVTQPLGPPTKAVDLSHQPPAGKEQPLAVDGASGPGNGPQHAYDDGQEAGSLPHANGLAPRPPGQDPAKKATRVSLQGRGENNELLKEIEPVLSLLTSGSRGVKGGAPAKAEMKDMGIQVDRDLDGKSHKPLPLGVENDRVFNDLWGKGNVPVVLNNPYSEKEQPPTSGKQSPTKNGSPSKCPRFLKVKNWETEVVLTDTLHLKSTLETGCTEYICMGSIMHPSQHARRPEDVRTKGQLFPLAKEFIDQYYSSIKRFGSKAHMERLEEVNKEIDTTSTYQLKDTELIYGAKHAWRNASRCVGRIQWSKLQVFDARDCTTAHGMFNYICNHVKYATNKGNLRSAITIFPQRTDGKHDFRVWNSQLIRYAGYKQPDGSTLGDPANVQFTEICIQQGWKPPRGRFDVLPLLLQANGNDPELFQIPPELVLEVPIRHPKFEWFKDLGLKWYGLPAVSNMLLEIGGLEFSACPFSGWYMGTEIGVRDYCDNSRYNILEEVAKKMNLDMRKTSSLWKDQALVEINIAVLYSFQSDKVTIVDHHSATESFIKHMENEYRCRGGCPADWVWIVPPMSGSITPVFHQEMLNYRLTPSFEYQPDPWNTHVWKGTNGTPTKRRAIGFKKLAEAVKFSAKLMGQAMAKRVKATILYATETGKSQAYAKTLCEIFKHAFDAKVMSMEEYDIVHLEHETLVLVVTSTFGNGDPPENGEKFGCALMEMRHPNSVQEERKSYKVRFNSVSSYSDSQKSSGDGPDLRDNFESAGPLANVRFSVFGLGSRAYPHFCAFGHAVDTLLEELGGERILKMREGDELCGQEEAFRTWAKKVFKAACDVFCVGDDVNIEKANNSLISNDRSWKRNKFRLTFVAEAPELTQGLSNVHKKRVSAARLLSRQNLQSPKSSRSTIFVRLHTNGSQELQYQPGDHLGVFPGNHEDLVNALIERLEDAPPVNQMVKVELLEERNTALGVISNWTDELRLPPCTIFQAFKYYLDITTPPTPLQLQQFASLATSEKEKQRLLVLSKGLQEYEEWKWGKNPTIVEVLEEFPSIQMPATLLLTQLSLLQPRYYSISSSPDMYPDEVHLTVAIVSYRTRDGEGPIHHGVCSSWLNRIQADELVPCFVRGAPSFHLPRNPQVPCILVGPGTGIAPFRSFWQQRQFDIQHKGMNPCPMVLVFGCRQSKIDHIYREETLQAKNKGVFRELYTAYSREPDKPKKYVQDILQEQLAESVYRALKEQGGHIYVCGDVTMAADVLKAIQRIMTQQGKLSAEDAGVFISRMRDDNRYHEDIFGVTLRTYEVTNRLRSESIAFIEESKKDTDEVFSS

[3] = target: T3, Nitric oxide synthase 3 (Homo sapiens) (UniProt P29474); experiment: Compound was evaluated for the Inhibition of endothelial isoform of Endothelial nitric oxide synthase (eNOS)enzyme at 100 uM concentration
T3 sequence (whole entry): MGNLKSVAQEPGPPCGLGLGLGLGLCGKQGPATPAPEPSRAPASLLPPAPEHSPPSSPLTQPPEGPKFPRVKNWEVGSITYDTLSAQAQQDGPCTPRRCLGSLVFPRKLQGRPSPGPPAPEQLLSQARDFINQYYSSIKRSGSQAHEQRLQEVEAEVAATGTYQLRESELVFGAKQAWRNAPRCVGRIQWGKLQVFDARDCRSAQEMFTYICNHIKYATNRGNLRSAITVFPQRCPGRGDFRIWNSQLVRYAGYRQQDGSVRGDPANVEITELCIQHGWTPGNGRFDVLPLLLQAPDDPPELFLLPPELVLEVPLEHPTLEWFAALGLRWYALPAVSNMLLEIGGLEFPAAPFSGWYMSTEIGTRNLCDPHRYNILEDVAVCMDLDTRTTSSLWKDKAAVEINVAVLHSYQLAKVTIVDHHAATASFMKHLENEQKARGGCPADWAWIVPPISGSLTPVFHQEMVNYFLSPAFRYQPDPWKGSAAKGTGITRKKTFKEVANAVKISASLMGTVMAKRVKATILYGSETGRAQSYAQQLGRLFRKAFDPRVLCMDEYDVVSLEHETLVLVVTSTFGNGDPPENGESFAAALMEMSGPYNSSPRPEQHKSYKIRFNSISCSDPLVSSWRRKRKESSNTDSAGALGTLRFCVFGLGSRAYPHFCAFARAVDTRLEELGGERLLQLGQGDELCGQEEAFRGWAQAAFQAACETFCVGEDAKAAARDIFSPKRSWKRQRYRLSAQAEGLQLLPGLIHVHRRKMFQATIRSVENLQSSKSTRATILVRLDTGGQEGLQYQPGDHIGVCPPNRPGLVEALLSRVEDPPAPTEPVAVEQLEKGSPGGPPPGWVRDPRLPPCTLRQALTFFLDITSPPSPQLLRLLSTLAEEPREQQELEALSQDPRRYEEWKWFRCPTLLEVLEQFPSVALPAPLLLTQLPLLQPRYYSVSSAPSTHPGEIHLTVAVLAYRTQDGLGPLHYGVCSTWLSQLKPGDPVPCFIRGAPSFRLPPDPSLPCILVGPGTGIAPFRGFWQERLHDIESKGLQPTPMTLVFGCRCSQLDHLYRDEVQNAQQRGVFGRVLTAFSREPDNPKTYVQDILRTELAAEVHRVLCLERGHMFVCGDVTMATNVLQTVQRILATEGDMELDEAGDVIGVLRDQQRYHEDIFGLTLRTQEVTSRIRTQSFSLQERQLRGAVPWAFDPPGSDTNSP

[4] = target: T1, Nitric oxide synthase, inducible; experiment: Compound was evaluated for the Inhibition of induced isoform of Inducible nitric oxide synthase
[5] = target: T4, Nitric oxide synthase 3 (Homo sapiens, UniProt P29474); experiment: Compound was evaluated for the Inhibition of endothelial isoform of Endothelial nitric oxide synthase (eNOS)enzyme
T4 sequence (P29474 whole entry): T3 sequence (whole entry)

[6] = target: Nitric oxide synthase (inducible and endothelial) (Homo sapiens) (UniProt P35228+P29474); experiment: Selectivity index determined by the ratio of IC50 of eNOS to the iNOS; type: protein assay
Chain of Nitric oxide synthase (inducible and endothelial) (Homo sapiens) (P35228 whole entry, looked up, one chain of several): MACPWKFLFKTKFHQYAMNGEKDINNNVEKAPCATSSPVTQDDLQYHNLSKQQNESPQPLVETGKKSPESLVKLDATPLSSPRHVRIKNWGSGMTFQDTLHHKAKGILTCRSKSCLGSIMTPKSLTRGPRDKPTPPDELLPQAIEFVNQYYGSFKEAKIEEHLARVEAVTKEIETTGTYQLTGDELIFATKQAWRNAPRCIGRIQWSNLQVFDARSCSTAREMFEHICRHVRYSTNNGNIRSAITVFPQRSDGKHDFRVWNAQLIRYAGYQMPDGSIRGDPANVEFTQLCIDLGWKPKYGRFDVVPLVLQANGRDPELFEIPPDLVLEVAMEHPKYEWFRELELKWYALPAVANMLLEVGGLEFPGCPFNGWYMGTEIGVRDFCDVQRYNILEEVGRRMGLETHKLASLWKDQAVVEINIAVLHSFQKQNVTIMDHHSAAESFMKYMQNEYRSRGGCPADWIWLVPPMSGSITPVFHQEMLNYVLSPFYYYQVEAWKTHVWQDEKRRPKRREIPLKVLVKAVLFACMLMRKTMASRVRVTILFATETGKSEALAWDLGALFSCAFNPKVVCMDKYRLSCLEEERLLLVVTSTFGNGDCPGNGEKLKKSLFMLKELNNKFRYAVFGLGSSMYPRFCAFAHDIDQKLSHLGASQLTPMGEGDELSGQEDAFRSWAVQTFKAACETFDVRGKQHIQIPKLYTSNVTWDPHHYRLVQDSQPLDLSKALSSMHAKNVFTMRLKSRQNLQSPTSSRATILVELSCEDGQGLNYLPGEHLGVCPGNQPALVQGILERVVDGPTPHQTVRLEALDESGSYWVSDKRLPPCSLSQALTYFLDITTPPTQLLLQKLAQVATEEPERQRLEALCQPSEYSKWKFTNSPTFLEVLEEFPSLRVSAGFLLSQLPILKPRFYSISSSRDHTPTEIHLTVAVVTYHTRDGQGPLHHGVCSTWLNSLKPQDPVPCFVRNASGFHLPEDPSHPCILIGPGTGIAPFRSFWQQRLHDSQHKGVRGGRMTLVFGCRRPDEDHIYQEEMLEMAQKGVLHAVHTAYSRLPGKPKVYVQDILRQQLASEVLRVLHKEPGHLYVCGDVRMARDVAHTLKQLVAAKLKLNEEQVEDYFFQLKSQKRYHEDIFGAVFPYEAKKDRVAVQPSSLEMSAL

[7] = target: Nitric oxide sythases; iNOS & nNOS (Homo sapiens) (UniProt P29475+P35228); experiment: Selectivity index determined by the ratio of IC50 of nNOS to the iNOS; type: protein assay
Chain of Nitric oxide sythases; iNOS & nNOS (Homo sapiens) (P29475 whole entry, looked up): as the sequence (P29475 whole entry, canonical isoform) above
Chain of Nitric oxide sythases; iNOS & nNOS (Homo sapiens) (P35228 whole entry, looked up): as the sequence (P35228 whole entry, looked up, one chain of several) above

[8] = target: T2, Nitric oxide synthase 1; experiment: Compound was evaluated for the Inhibition of Neuronal nitric oxide synthase

T1 sequence (P35228 whole entry, canonical isoform): as the sequence (P35228 whole entry, looked up, one chain of several) above

In the case of CC(=N)NCCCC[C@H](N)[C@H](O)CO, the inhibition [1] is reported as 49%, the inhibition [2] is reported as 13% and the inhibition [3] is reported as 0%.

Compound CC(=N)NCCCC[C@H](N)C(=O)O [L-NIL] has an IC50 [4] of 5 µM, an IC50 [5] of 138 µM and a Selectivity index [6] of 30. For the same compound, the Selectivity index [7] was 12.

CC(=N)NCCCC[C@H](N)[C@@H](O)CO was tested, and the IC50 [4] was 12 µM, the IC50 [5] was 8420 µM and the Selectivity index [6] was 700. The IC50 [8] was 150 µM and the Selectivity index [7] was 12.
